Assay results as given in publication PMC7400446, “Antimicrobial and Antifungal Activity of Rare Substituted 1,2,3-Thiaselenazoles and Corresponding Matched Pair 1,2,3-Dithiazoles” (Antibiotics, 2020).
≈ marks a conversion by molar mass, not a printed value. Entries after “also recorded” stand apart in the source; their conditions may differ.

Experiments:
[1] = tested on: A. baumannii (Strain ATCC 19606, Type strain); experiment: Antibacterial assay, MIC; type: cell-based, Acinetobacter baumannii; details: for MIC: Acinetobacter baumannii, ATCC19606
Experimental: (§1) All bacteria, S. aureus (Strain ATCC 43300, MRSA), E. coli (Strain ATCC 25922, FDA control strain), K. pneumoniae (Strain ATCC 700603, MDR), A. baumannii (Strain ATCC 19606, Type strain), P. aeruginosa (Strain ATCC 27853, Quality control strain), were cultured in Cation-adjusted Mueller Hinton broth (CAMHB) at 37 °C overnight. A sample of each culture was then diluted 40-fold in fresh broth and incubated at 37 °C for 1.5–3 h. The resultant mid-log phase cultures were diluted (CFU/mL measured by OD600), then added to each well of the compound containing plates, giving a cell density of 5 × 10^5 CFU/mL and a total volume of 50 μL. All the plates were covered and incubated at 37 °C for 18 h without shaking.
(§2) Analysis: Inhibition of bacterial growth was determined measuring absorbance at 600 nm (OD600), using a Tecan M1000 Pro monochromator plate reader. The percentage of growth inhibition was calculated for each well, using the negative control (media only) and positive control (bacteria without inhibitors) on the same plate as references. […]

[2] = tested on: S. aureus (Strain ATCC 43300, MRSA); experiment: Antibacterial assay, MIC; type: cell-based, Staphylococcus aureus; details: for MIC: Staphylococcus aureus
Experimental: as §1, §2

haemolytic activity = experiment: Haemolysis assay; type: cell-based; details: for Hc10 (concentration at 10% haemolytic activity): unit not given
Experimental: Hc10 (concentration at 10% haemolytic activity) was calculated by curve fitting the inhibition values vs. log(concentration) using a Sigmoidal dose-response function, with variable values for bottom, top and slope. The curve fitting is implemented using Pipeline Pilot’s dose-response component (giving similar results to similar tools such as GraphPad’s Prism and IDBS’s XlFit). […] DMax represents the highest percentage inhibition response for all concentrations tested. […] In addition, the value indicates if samples have been active, but curve fitting failed, mostly because only the single highest concentration was active.

[3] = tested on: C. neoformans (Strain ATCC 208821, H99 Type strain); experiment: Antifungal assay, MIC; type: cell-based, Cryptococcus neoformans var. grubii; details: for MIC: Cryptococcus neoformans, ATCC208821
Experimental: (§3) Fungi strains C. albicans (Strain ATCC 90028, CLSI reference) and C. neoformans (Strain ATCC 208821, H99 Type strain), were cultured for 3 days on Yeast Extract-Peptone Dextrose (YPD) agar at 30 °C. A yeast suspension of 1 × 10^6 to 5 × 10^6 CFU/mL (as determined by OD530) was prepared from five colonies. The suspension was subsequently diluted and added to each well of the compound-containing plates giving a final cell density of fungi suspension of 2.5 × 10^3 CFU/mL and a total volume of 50 μL. All plates were covered and incubated at 35 °C for 36 h without shaking.
(§4) Analysis: Growth inhibition of C. albicans was determined measuring absorbance at 630 nm (OD630), while the growth inhibition of C. neoformans was determined measuring the difference in absorbance between 600 and 570 nm (OD600–570), after the addition of resazurin (0.001% final concentration) and incubation at 35 °C for 2 h. The absorbance was measured using a Biotek Multiflo Synergy HTX plate reader. In both cases, the percentage of growth inhibition was calculated for each well, using the negative control (media only) and positive control (fungi without inhibitors) on the same plate. […] Due to a higher variance in growth and inhibition, a lower threshold was applied to the data for C. neoformans.

HEK293 cells = experiment: Cytotoxicity assay (resazurin); type: cell-based
Experimental: (§5) HEK293 cells were counted manually in a Neubauer haemocytometer and then plated in the 384-well plates containing the compounds to give a density of 6000 cells/well in a final volume of 50 μL. DMEM supplemented with 10% FBS was used as growth media and the cells were incubated together with the compounds for 20 h at 37 °C in 5% CO2. Analysis: Cytotoxicity (or cell viability) was measured by fluorescence, ex: 560/10 nm, em: 590/10 nm (F560/590), after addition of 5 μL of 25 μgmL^−1 Resazurin (2.3 μgmL^−1 final concentration) and after incubation for further 3h at 37 °C in 5% CO2. The fluorescence intensity was measured using a Tecan M1000 Pro monochromator plate reader, using automatic gain calculation CC50 (concentration at 50% cytotoxicity) were calculated by curve fitting the inhibition values vs. log(concentration) using sigmoidal dose-response function, with variable fitting values for bottom, top and slope.

[4] = tested on: C. albicans (Strain ATCC 90028, CLSI reference); experiment: Antifungal assay, MIC; type: cell-based, Candida albicans; details: for MIC: Candida albicans, ATCC90028
Experimental: as §3, §4

[5] = tested on: Staphylococcus aureus, Acinetobacter baumannii, Candida albicans and Cryptococcus neoformans var. grubii; experiment: Initial antimicrobial screen (CO-ADD); type: cell-based; details: 10 μM; Active / Inactive
Excerpt: We then screened this series of 1,2,3-dithiazoles and 1,2,3-thiaselenazoles (8−15) against Staphylococcus aureus, Acinetobacter baumannii, Candida albicans and Cryptococcus neoformans var. grubii (Table 1) as part of the Community for Antimicrobial Drug Discovery (CO-ADD) initiative to develop new lead compounds [51]. These represent three distinct classes of microbes. Staphylococcus aureus (ATCC 43300) is a gram-positive bacterium derived from the super bug methicillin-resistant Staphylococcus aureus (MRSA). Acinetobacter baumannii (ATCC 19606) is a gram-negative bacterium hospital-derived infection with very few antibiotics that can treat this pathogen. Candida albicans (ATCC 90028) and Cryptococcus neoformans var. grubii (ATCC 208821) are both opportunistic fungi. These fungal pathogens are particularly dangerous for patients in hospital with immunodeficiencies, undergoing cancer chemotherapy and organ transplantation. These strains are considered by the World Health Organization (WHO) to be the highest priority to develop novel antibiotics for control of these bacteria and fungi. These are some of the most difficult to treat, particularly in a hospital setting where sepsis and pneumonia can quickly overcome the body’s immune system.
The 1,2,3-thiaselenazole analog (13) was potent on against three of the four pathogens with a similar profile to 9a without the activity on A. baumannii.
Antimicrobial screening was performed by CO-ADD (The Community for Antimicrobial Drug Discovery), Australia.
as §1, §2
Fungi strains C. albicans (Strain ATCC 90028, CLSI reference) and C. neoformans (Strain ATCC 208821, H99 Type strain), were cultured for 3 days on Yeast Extract-Peptone Dextrose (YPD) agar at 30 °C. A yeast suspension of 1 × 10^6 to 5 × 10^6 CFU/mL (as determined by OD530) was prepared from five colonies. The suspension was subsequently diluted and added to each well of the compound-containing plates giving a final cell density of fungi suspension of 2.5 × 10^3 CFU/mL and a total volume of 50 μL. All plates were covered and incubated at 35 °C for 36 h without shaking. […]

[6] = Cytotoxicity assay (resazurin); type: cell-based; details: human; HEK293 cells, 20 h; unit not given in Table 1; read-out: CC50 (concentration at 50% cytotoxicity)
Experimental: as §5

[7] = ATCC 19606, MIC = lowest concentration with inhibition ≥80%
[8] = ATCC 43300 (MRSA), MIC = lowest concentration with inhibition ≥80%
[9] = ATCC 208821, inhibition ≥70% (method)

Row | Compound | Hc10 (concentration at 10% haemolytic activity) (haemolytic activity) | Initial Screen [5] | melting point | MIC [1, 7] | MIC [2, 8] | MIC [3, 9] | CC50 at 20 h [6] | MIC ([4]; ATCC 90028, inhibition ≥80%) | other results
1 | 8-Chloroindeno[1,2-d][1,2,3]thiaselenazole [Compound 9a] | >32 | – | – | – | – | – | – | – | Antibacterial A. baumannii MIC [1, 7]: >32 µg/mL; Antibacterial S. aureus MIC [2, 8]: >32 µg/mL; Antifungal C. neoformans MIC [3, 9]: ≤0.25 µg/mL; CC50 (concentration at 50% cytotoxicity) (HEK293 cells; 20 h, unit not given in Table 1): >32 µM; Antifungal C. albicans MIC ([4]; ATCC 90028, inhibition ≥80%): ≤0.25 µg/mL
2 | 8-Phenylindeno[1,2-d][1,2,3]thiaselenazole [Compound 9b] | – | Inactive | – | – | – | – | – | – | –
3 | Clc1c2nssc-2c(Cl)c1Cl [Compound 10a, 4,5,6-Trichlorocyclopenta[d][1,2,3]dithiazole] | – | Inactive | 122 to 124 °C | – | – | – | – | – | –
4 | N#Cc1c2nssc-2c(Cl)c1Cl [Compound 10b, 5,6-Dichlorocyclopenta[1,2,3]dithiazole-4-carbonitrile] | >32 | – | 217 to 219 °C | > 32 µg/mL | > 32 µg/mL | ≤ 0.25 µg/mL | > 32 µg/mL | ≤ 0.25 µg/mL | Activity against A. baumannii (in words) [1]: removed all activity; Activity against S. aureus (in words) [2]: removed all activity; Activity against C. neoformans (in words) [3]: maintained activity; Toxicity (in words) (HEK293 cells): no toxicity; Activity against C. albicans (in words) [4]: maintained activity
5 | CCOC(=O)c1c2nssc-2c(Cl)c1Cl [Compound 10c, Ethyl 5,6-dichlorocyclopenta[d][1,2,3]dithiazole-4-carboxylate] | >32 | – | 80 to 82 °C | > 32 µg/mL | > 32 µg/mL | > 32 µg/mL | > 32 µg/mL | ≤ 0.25 µg/mL | Toxicity (in words) (HEK293 cells): no toxicity; Activity against C. albicans (in words) [4]: selective for C. albicans
6 | Clc1c2n[se]sc-2c(Cl)c1Cl [Compound 11a, 4,5,6-Trichlorocyclopenta[d][1,2,3]thiaselenazole] | >32 | – | 117 to 119 °C | ≤ 0.25 µg/mL | ≤ 0.25 µg/mL | ≤ 0.25 µg/mL | 0.52 µg/mL (≈ 1.78 µM) | ≤ 0.25 µg/mL | Activity against A. baumannii (in words) [1]: very potent; Activity against S. aureus (in words) [2]: very potent; Haemolysis (in words) (haemolytic activity): no haemolysis; Activity against C. neoformans (in words) [3]: very potent; Activity against C. albicans (in words) [4]: very potent
7 | N#Cc1c2n[se]sc-2c(Cl)c1Cl [Compound 11b, 5,6-Dichlorocyclopenta[d][1,2,3]thiaselenazole-4-carbonitrile] | >32 | – | 171 to 173 °C | > 32 µg/mL | ≤ 0.25 µg/mL | ≤ 0.25 µg/mL | > 32 µg/mL | ≤ 0.25 µg/mL | Activity against S. aureus (in words) [2]: potent
8 | CCOC(=O)c1c2n[se]sc-2c(Cl)c1Cl [Compound 11c, Ethyl 5,6-dichlorocyclopenta[d][1,2,3]thiaselenazole-4-carboxylate] | >32 | – | 188 to 190 °C | > 32 µg/mL | ≤ 0.25 µg/mL | ≤ 0.25 µg/mL | 7 µg/mL (≈ 21.3 µM) | ≤ 0.25 µg/mL | Haemolysis (in words) (haemolytic activity): no haemolysis
9 | ClC1=C2SSN=C2c2ccccc2C(Cl)=C1Cl [Compound 12, 4,5,6-Trichlorobenzo[6,7]cyclohepta[1,2-d][1,2,3]dithiazole] | – | Inactive | 119 to 121 °C | – | – | – | – | – | –
10 | ClC1=C2S[Se]N=C2c2ccccc2C(Cl)=C1Cl [Compound 13, 4,5,6-Trichlorobenzo[6,7]cyclohepta[1,2-d][1,2,3]thiaselenazole] | >32 | – | 144 to 145 °C | > 32 µg/mL | ≤ 0.25 µg/mL | ≤ 0.25 µg/mL | 0.48 µg/mL (≈ 1.31 µM) | ≤ 0.25 µg/mL | –
11 | c1ccc2c(c1)N=C1SSN=C1O2 [Compound 14, Benzo[b][1,2,3]dithiazolo[5,4-e][1,4]oxazine] | – | not fruitful; also recorded: Inactive | 182 to 184 °C | – | – | – | – | – | –
